Some results are limits rather than exact numbers.

For this assay, the target named is T1, human PAH with the R408W mutation (Homo sapiens, UniProt P00439, R408W).
T1 construct: expressed in transfected cells
T1 sequence (P00439 1-452 R408W): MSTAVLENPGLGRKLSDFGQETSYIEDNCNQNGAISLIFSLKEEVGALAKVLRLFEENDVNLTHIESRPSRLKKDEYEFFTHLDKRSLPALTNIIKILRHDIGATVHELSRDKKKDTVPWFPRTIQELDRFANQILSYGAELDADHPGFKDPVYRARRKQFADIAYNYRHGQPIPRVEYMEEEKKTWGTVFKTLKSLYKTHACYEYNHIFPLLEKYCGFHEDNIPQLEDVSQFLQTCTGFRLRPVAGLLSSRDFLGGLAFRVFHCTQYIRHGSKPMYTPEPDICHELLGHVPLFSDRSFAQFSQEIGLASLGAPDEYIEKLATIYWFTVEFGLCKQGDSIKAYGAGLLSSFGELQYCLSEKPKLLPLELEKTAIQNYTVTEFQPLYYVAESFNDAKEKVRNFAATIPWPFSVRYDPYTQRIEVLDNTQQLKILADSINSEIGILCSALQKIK
The experiment in a line: Cell Based Phenylalanine Flux Assay.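 Also: after compound treatment, cells received sepiapterin plus isotope-labelled Phenylalanine for 4 hours, then labelled Tyrosine in the medium was quantified, 10-point 2-fold dilution series run in duplicate.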 Particulars: A375 cells expressing human PAH R408W; 24 hrs compound incubation; 13C-Tyrosine by LC-MS; average where tested multiple times; read-out: AC50.
As to `Cn1nc(C(F)F)nc1C(=O)N1CCc2[nH]cnc2[C@H]1c1cc2cccc(Cl)n2n1` [Example 2396, (S)-(4-(7-chloropyrazolo[1,5-a]pyridin-2-yl)-6,7-dihydro-1H-imidazo[4,5-c]pyridin-5(4H)-yl)(3-(difluoromethyl)-1-methyl-1H-1,2,4-triazol-5-yl)methanone], the AC50 lay within 1000 to 5000 nM.
In the case of `Cn1nc(C(F)(F)F)nc1C(=O)N1CCc2[nH]cnc2[C@H]1c1cc2c(F)cccn2n1` [Example 2398, (S)-(4-(4-fluoropyrazolo[1,5-a]pyridin-2-yl)-6,7-dihydro-1H-imidazo[4,5-c]pyridin-5(4H)-yl)(1-methyl-3-(trifluoromethyl)-1H-1,2,4-triazol-5-yl)methanone] it was 1000 to 5000 nM; in that of `Cn1nc(C(F)(F)F)nc1C(=O)N1CCc2[nH]cnc2[C@@H]1c1cc2c(F)cccn2n1` [Example 2399, (R)-(4-(4-fluoropyrazolo[1,5-a]pyridin-2-yl)-6,7-dihydro-1H-imidazo[4,5-c]pyridin-5(4H)-yl)(1-methyl-3-(trifluoromethyl)-1H-1,2,4-triazol-5-yl)methanone], 1000 to 5000 nM.
`O=C(c1ocnc1C(F)F)N1CCc2[nH]cnc2[C@H]1c1cc2cc(F)ccn2n1` [Example 2400, (S)-(4-(difluoromethyl)oxazol-5-yl)(4-(5-fluoropyrazolo[1,5-a]pyridin-2-yl)-6,7-dihydro-1H-imidazo[4,5-c]pyridin-5(4H)-yl)methanone]: the AC50 was less than 500 nM.
In the case of `O=C(c1ocnc1C(F)F)N1CCc2[nH]cnc2[C@@H]1c1cc2cc(F)ccn2n1` [Example 2401, (R)-(4-(difluoromethyl)oxazol-5-yl)(4-(5-fluoropyrazolo[1,5-a]pyridin-2-yl)-6,7-dihydro-1H-imidazo[4,5-c]pyridin-5(4H)-yl)methanone] it was 1000 to 5000 nM.
In the case of `Cc1ccc2cc([C@@H]3c4nc[nH]c4CCN3C(=O)c3nc(C(F)F)nn3C)nn2c1` [Example 2403, (S)-(3-(difluoromethyl)-1-methyl-1H-1,2,4-triazol-5-yl)(4-(6-methylpyrazolo[1,5-a]pyridin-2-yl)-6,7-dihydro-1H-imidazo[4,5-c]pyridin-5(4H)-yl)methanone] it was 1000 to 5000 nM; in that of `O=C(c1nnc(C2CC2)o1)N1CCc2[nH]cnc2[C@@H]1c1cc2ccc(F)cn2n1` [Example 2405, (R)-(5-cyclopropyl-1,3,4-oxadiazol-2-yl)(4-(6-fluoropyrazolo[1,5-a]pyridin-2-yl)-6,7-dihydro-1H-imidazo[4,5-c]pyridin-5(4H)-yl)methanone], greater than 5000 nM; in that of `CC(C)(O)c1nc(C(F)F)c(C(=O)N2CCc3[nH]cnc3[C@H]2c2cc3cc(C(F)(F)F)ccn3n2)o1` [Example 2406, (S)-(4-(difluoromethyl)-2-(2-hydroxypropan-2-yl)oxazol-5-yl)(4-(5-(trifluoromethyl)pyrazolo[1,5-a]pyridin-2-yl)-6,7-dihydro-1H-imidazo[4,5-c]pyridin-5(4H)-yl)methanone], less than 500 nM.
In the case of `CC(C)(C)c1nnc(C(=O)N2CCc3[nH]cnc3[C@H]2c2cc3cccc(C(F)(F)F)n3n2)o1` [Example 2409, (S)-(5-(tert-butyl)-1,3,4-oxadiazol-2-yl)(4-(7-(trifluoromethyl)pyrazolo[1,5-a]pyridin-2-yl)-6,7-dihydro-1H-imidazo[4,5-c]pyridin-5(4H)-yl)methanone] it was 1000 to 5000 nM; in that of `Cn1nc(C(F)F)nc1C(=O)N1CCc2[nH]cnc2[C@H]1c1cc2cc(C(F)(F)F)ccn2n1` [Example 2410, (S)-(3-(difluoromethyl)-1-methyl-1H-1,2,4-triazol-5-yl)(4-(5-(trifluoromethyl)pyrazolo[1,5-a]pyridin-2-yl)-6,7-dihydro-1H-imidazo[4,5-c]pyridin-5(4H)-yl)methanone], 500 to 1000 nM; in that of `Cn1nc(C(F)(F)F)nc1C(=O)N1CCc2[nH]cnc2[C@H]1c1cc2cccc(Cl)n2n1` [Example 2412, (S)-(4-(7-chloropyrazolo[1,5-a]pyridin-2-yl)-6,7-dihydro-1H-imidazo[4,5-c]pyridin-5(4H)-yl)(1-methyl-3-(trifluoromethyl)-1H-1,2,4-triazol-5-yl)methanone], 1000 to 5000 nM.
Take `O=C(c1nnc(-c2ccccn2)o1)N1CCc2[nH]cnc2[C@H]1c1cc2ccc(C(F)(F)F)cn2n1` [Example 2414, (S)-(5-(pyridin-2-yl)-1,3,4-oxadiazol-2-yl)(4-(6-(trifluoromethyl)pyrazolo[1,5-a]pyridin-2-yl)-6,7-dihydro-1H-imidazo[4,5-c]pyridin-5(4H)-yl)methanone]: the half-maximal activity concentration (AC50) was 1000 to 5000 nM.
As to `O=C(c1nnc(-c2ccccn2)o1)N1CCc2[nH]cnc2[C@@H]1c1cc2ccc(C(F)(F)F)cn2n1` [Example 2415, (R)-(5-(pyridin-2-yl)-1,3,4-oxadiazol-2-yl)(4-(6-(trifluoromethyl)pyrazolo[1,5-a]pyridin-2-yl)-6,7-dihydro-1H-imidazo[4,5-c]pyridin-5(4H)-yl)methanone], the AC50 lay within 1000 to 5000 nM.
In the case of `Cn1cc(-c2nnc(C(=O)N3CCc4[nH]cnc4[C@@H]3c3cc4ccc(C(F)(F)F)cn4n3)o2)cn1` [Example 2417, (R)-(5-(1-methyl-1H-pyrazol-4-yl)-1,3,4-oxadiazol-2-yl)(4-(6-(trifluoromethyl)pyrazolo[1,5-a]pyridin-2-yl)-6,7-dihydro-1H-imidazo[4,5-c]pyridin-5(4H)-yl)methanone], the AC50 is 1000 to 5000 nM.
In the case of `Cn1nc(C2CC2)nc1C(=O)N1CCc2[nH]cnc2[C@H]1c1cc2cccc(C(F)(F)F)n2n1` [Example 2419, (S)-(3-cyclopropyl-1-methyl-1H-1,2,4-triazol-5-yl)(4-(7-(trifluoromethyl)pyrazolo[1,5-a]pyridin-2-yl)-6,7-dihydro-1H-imidazo[4,5-c]pyridin-5(4H)-yl)methanone] it was 1000 to 5000 nM; in that of `CC(C)(F)c1nnc(C(=O)N2CCc3[nH]cnc3[C@H]2c2cc3ccc(C(F)(F)F)cn3n2)o1` [Example 2420, (S)-(5-(2-fluoropropan-2-yl)-1,3,4-oxadiazol-2-yl)(4-(6-(trifluoromethyl)pyrazolo[1,5-a]pyridin-2-yl)-6,7-dihydro-1H-imidazo[4,5-c]pyridin-5(4H)-yl)methanone], 1000 to 5000 nM; in that of `CC(C)(F)c1nnc(C(=O)N2CCc3[nH]cnc3[C@@H]2c2cc3ccc(C(F)(F)F)cn3n2)o1` [Example 2421, (R)-(5-(2-fluoropropan-2-yl)-1,3,4-oxadiazol-2-yl)(4-(6-(trifluoromethyl)pyrazolo[1,5-a]pyridin-2-yl)-6,7-dihydro-1H-imidazo[4,5-c]pyridin-5(4H)-yl)methanone], 1000 to 5000 nM.
In the case of `Cc1nc([C@H](C)O)oc1C(=O)N1CCc2[nH]cnc2[C@H]1c1cc2cccc(C(F)(F)F)n2n1` [Example 2422, (2-((S)-1-hydroxyethyl)-4-methyloxazol-5-yl)((S)-4-(7-(trifluoromethyl)pyrazolo[1,5-a]pyridin-2-yl)-6,7-dihydro-1H-imidazo[4,5-c]pyridin-5(4H)-yl)methanone] it was 1000 to 5000 nM; in that of `O=C(c1cnn2ccccc12)N1CCc2[nH]cnc2[C@H]1c1cc2cccc(Cl)n2n1` [Example 2424, (S)-(4-(7-chloropyrazolo[1,5-a]pyridin-2-yl)-6,7-dihydro-1H-imidazo[4,5-c]pyridin-5(4H)-yl)(pyrazolo[1,5-a]pyridin-3-yl)methanone], 1000 to 5000 nM; in that of `O=C(c1nnc(-c2cnn(C(F)(F)F)c2)o1)N1CCc2[nH]cnc2[C@H]1c1cc2ccccn2n1` [Example 2426, (S)-(4-(pyrazolo[1,5-a]pyridin-2-yl)-6,7-dihydro-1H-imidazo[4,5-c]pyridin-5(4H)-yl)(5-(1-(trifluoromethyl)-1H-pyrazol-4-yl)-1,3,4-oxadiazol-2-yl)methanone], 1000 to 5000 nM.
In the case of `O=C(c1nnc(-c2cnn(C(F)(F)F)c2)o1)N1CCc2[nH]cnc2[C@@H]1c1cc2ccccn2n1` [Example 2427, (R)-(4-(pyrazolo[1,5-a]pyridin-2-yl)-6,7-dihydro-1H-imidazo[4,5-c]pyridin-5(4H)-yl)(5-(1-(trifluoromethyl)-1H-pyrazol-4-yl)-1,3,4-oxadiazol-2-yl)methanone] it was greater than 5000 nM; in that of `O=C(c1nnc(-c2cnn(C(F)(F)F)c2)o1)N1CCc2[nH]cnc2[C@@H]1c1cc2cccc(C(F)(F)F)n2n1` [Example 2429, (R)-(5-(1-(trifluoromethyl)-1H-pyrazol-4-yl)-1,3,4-oxadiazol-2-yl)(4-(7-(trifluoromethyl)pyrazolo[1,5-a]pyridin-2-yl)-6,7-dihydro-1H-imidazo[4,5-c]pyridin-5(4H)-yl)methanone], 1000 to 5000 nM; in that of `O=C(c1nnc(C2CCC2)o1)N1CCc2[nH]cnc2[C@H]1c1cc2cccc(C(F)(F)F)n2n1` [Example 2430, (S)-(5-cyclobutyl-1,3,4-oxadiazol-2-yl)(4-(7-(trifluoromethyl)pyrazolo[1,5-a]pyridin-2-yl)-6,7-dihydro-1H-imidazo[4,5-c]pyridin-5(4H)-yl)methanone], 1000 to 5000 nM.
In the case of `O=C(c1nnc(C2CCC2)o1)N1CCc2[nH]cnc2[C@@H]1c1cc2cccc(C(F)(F)F)n2n1` [Example 2431, (R)-(5-cyclobutyl-1,3,4-oxadiazol-2-yl)(4-(7-(trifluoromethyl)pyrazolo[1,5-a]pyridin-2-yl)-6,7-dihydro-1H-imidazo[4,5-c]pyridin-5(4H)-yl)methanone], the AC50 is 1000 to 5000 nM.

As usually defined, the AC50 is the concentration at which the activity in the assay is half-maximal.

The record behind these values is patent publication US20230365592A1 (Agios Pharmaceuticals, Inc., priority 2022, published 2023).
